Laboratory results taken from paper PMC7267738 (iScience, 2020).

How the values were obtained:
[1] = biological target: purified recombinant c-Met kinase domains (Homo sapiens, UniProt P08581); assay: Biochemical kinase assay
c-Met = c-Met (Homo sapiens, UniProt P08581); type: cell-based
Sequence of c-Met (P08581 25-1390): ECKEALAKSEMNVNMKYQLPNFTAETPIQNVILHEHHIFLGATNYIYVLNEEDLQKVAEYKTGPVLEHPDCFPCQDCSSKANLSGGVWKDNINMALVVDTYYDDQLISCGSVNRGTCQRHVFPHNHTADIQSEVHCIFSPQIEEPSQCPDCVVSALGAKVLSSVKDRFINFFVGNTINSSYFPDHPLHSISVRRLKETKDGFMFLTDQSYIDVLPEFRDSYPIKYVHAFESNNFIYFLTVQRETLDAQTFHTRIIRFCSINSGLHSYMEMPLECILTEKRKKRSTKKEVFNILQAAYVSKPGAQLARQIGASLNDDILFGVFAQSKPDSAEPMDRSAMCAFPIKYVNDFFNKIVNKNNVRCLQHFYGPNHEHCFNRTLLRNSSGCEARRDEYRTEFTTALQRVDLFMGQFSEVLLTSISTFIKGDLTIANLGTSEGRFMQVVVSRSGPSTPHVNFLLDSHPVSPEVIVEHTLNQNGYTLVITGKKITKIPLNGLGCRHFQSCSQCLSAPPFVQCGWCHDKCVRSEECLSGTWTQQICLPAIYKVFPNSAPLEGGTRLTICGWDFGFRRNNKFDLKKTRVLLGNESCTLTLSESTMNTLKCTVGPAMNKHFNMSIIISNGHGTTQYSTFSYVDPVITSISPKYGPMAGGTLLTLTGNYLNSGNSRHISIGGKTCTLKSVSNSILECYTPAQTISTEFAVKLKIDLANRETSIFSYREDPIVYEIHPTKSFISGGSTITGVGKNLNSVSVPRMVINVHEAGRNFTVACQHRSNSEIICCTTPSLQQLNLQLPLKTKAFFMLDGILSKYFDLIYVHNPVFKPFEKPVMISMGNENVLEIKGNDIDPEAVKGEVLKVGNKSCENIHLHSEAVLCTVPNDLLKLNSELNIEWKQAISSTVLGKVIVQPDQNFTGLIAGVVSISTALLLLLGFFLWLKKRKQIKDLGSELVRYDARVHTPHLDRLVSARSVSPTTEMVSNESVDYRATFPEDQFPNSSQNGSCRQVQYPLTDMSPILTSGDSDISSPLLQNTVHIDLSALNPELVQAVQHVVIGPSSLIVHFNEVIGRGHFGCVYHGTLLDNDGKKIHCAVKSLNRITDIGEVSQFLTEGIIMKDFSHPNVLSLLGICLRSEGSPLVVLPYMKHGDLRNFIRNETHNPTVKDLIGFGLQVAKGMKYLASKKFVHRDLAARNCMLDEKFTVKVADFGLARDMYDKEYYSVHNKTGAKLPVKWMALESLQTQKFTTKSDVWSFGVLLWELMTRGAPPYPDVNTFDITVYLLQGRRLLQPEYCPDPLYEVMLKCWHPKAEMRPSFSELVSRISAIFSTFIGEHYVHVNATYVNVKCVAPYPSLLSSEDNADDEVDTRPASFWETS

Sequence of purified recombinant c-Met kinase domains (P08581 1078-1345 limits assumed): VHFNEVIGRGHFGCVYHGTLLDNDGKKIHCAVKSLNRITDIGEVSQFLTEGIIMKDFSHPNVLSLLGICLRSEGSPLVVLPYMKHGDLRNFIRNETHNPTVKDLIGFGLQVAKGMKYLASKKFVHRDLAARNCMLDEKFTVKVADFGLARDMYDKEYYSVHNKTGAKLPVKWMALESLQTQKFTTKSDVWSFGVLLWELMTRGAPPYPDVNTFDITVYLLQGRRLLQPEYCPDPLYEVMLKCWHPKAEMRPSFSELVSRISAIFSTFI

For `COc1cc2ncnc(Oc3ccc(Nc4nccc5[nH]cc(-c6ccc(C(F)(F)F)cc6)c(=O)c45)cc3F)c2cc1OC` [Compound 5d], the IC50 [1] was 0.0403 µM and the IC50 (c-Met) was 25 µM.
